# In US20050032861A1, “Oxazolidines containing a sulfonimid group as antibiotics” (priority 2001, published 2005):
# Experiments:
# Type in all cases: cell-based
# [1] = system: Staphylococcus aureus MRQR; test: MIC, broth-dilution, Staphylococci in broth; settings: Staphylococcus aureus MRQR (methicillin resistant and quinolone resistant); 37° C., 16-24 hours
# Procedure: (§1) The following results were obtained on a standard in-vitro test system. The activity is described in terms of the minimum inhibitory concentration (MIC) determined by the broth-dilution technique with an inoculum size of 5×10^4 CFU/spot. Typically, compounds are active in the range 0.01 to 256 μg/ml.
# (§2) Staphylococci were tested in broth using an inoculum of 5×10^4 CFU/spot and an incubation temperature of 37° C. for 16-24 hours.
# (§3) • MSQS=methicillin sensitive and quinolone sensitive • MRQR=methincillin resistant and quinolone resistant
# [2] = system: Staphylococcus aureus MSQS; test: MIC, broth-dilution, Staphylococci in broth; settings: Staphylococcus aureus MSQS (methicillin sensitive and quinolone sensitive); 37° C., 16-24 hours
# Procedure: as §1, §2, §3
# Streptococcus pneumoniae = test: MIC, broth-dilution, Streptococci in Mueller-Hinton broth with horse blood; settings: 37° C. aerobically, 24 hours
# Procedure: as §1, with “μg/ml. Streptococci were tested in Mueller-Hinton broth supplemented with 2.5% clarified lake horse blood with an innoculum of 10^4 CFU/well and an incubation temperature of 37° C. aerobically for 24 hours.” for “μg/ml.”
# Streptococcus pyogenes = test: as above; settings: 37° C. aerobically, 24 hours
# Procedure: as §1, with “μg/ml. Streptococci were tested in Mueller-Hinton broth supplemented with 2.5% clarified lake horse blood with an innoculum of 10^4 CFU/well and an incubation temperature of 37° C. aerobically for 24 hours.” for “μg/ml.”
# Haemophilus influenzae = test: MIC, broth-dilution, fastidious Gram negative organisms; settings: hemin and NAD, 24 h at 37° C.
# Procedure: as §1, with “μg/ml. Fastidious Gram negative organisms were tested in Mueller-Hinton broth supplemented with hemin and NAD, grown aerobically for 24 h at 37° C., and with an innoculum of 5×10^4 CFU/well.” for “μg/ml.”
# Moraxella catarrhalis = test: as above; settings: hemin and NAD, 24 h at 37° C.
# Procedure: as §1, with “μg/ml. Fastidious Gram negative organisms were tested in Mueller-Hinton broth supplemented with hemin and NAD, grown aerobically for 24 h at 37° C., and with an innoculum of 5×10^4 CFU/well.” for “μg/ml.”
smiles,measurement,setting,value
"N=S1(=O)CC=C(c2c(F)cc(N3C[C@H](Cn4ccnn4)OC3=O)cc2F)CC1 (stereo partly drawn) [Example 2, (5R)-3-[3,5-Difluoro-4-(1RS-1-imino-1-oxo-3,6-dihydrothiopyran-4-yl)-phenyl]-5-(1H-1,2,3-triazol-1-ylmethyl)-2-oxazolidinone]",MIC,[1],8 µg/mL
same,MIC,[2],1 µg/mL
same,MIC,Streptococcus pneumoniae,2 µg/mL
same,MIC,Streptococcus pyogenes,2 µg/mL
same,MIC,Haemophilus influenzae,8 µg/mL
same,MIC,Moraxella catarrhalis,8 µg/mL
